Experimental data: ChEMBL document CHEMBL1151277, “Sesquiterpene chromones from Ferula fukanensis and their nitric oxide production inhibitory effects” (J Nat Prod, 2005)
≈ marks a conversion by molar mass, not a printed value.

test system: RAW264.7; test: Inhibition of LPS and IFN-gamma-induced iNOS mRNA expression in mouse RAW264.7 cells for 8 hrs by RT-PCR analysis; assay type: functional, cell-based; details: not given

Structure (SMILES)	Activity
CC(C)=CC(=O)/C=C(/C)CCC[C@]1(C)Oc2oc3cc(O)ccc3c(=O)c2[C@H]1C (relative stereo) [FUKANEFUROCHROMONE D]	Dose-dependent effect

test system: RAW264.7; test: Inhibition of LPS and IFN-gamma-induced nitric oxide production in mouse RAW264.7 cells after 16 hrs by Griess assay; assay type: functional, cell-based; details: RAW264.7, 16 h

IC50	Structure (SMILES)
4.1 µg/mL (≈ 10.7 µM)	CC(C)=CCC/C(C)=C/CC[C@]1(C)Oc2oc3cc(O)ccc3c(=O)c2[C@H]1C
9.8 µg/mL (≈ 24.7 µM)	CC(C)=CC(=O)C/C(C)=C/CC[C@]1(C)Oc2oc3cc(O)ccc3c(=O)c2[C@H]1C (relative stereo) [FUKANEFUROCHROMONE A]
11.5 µg/mL (≈ 29 µM)	CC(C)=CC(=O)/C=C(\C)CCC[C@]1(C)Oc2oc3cc(O)ccc3c(=O)c2[C@H]1C (relative stereo) [FUKANEFUROCHROMONE C]
9.5 µg/mL (≈ 24 µM)	CC(C)=CC(=O)/C=C(/C)CCC[C@]1(C)Oc2oc3cc(O)ccc3c(=O)c2[C@H]1C (relative stereo) [FUKANEFUROCHROMONE D]
8.9 µg/mL (≈ 22.4 µM)	CC(C)=CC(=O)C/C(C)=C/CC[C@@]1(C)Oc2oc3cc(O)ccc3c(=O)c2[C@H]1C (relative stereo) [FUKANEFUROCHROMONE B]
